Columns and labels:
[1] = tested on: MC38 tumor; test: Survival after LABI in MC38 tumor bearing mice; type: in vivo, C57BL mice; conditions: 0.150 μmol by LABI, compared to hydrolyzed C12PMMA-PI
Method: FIG. 13. Days of survival following LABI delivery of C12PMMA-PI (III) or hydrolyzed C12PMMA-PI to C57BL mice. Following three weeks of MC38 tumor development C12PMMA-PI or Hydrolyzed C12PMMA-PI (0.150 μmol in 20 μl DMSO, 200 μl ITG) were delivered by LABI. The mouse abdomen was closed 4 min after drug treatment and the animals were monitored for survival time.
In vivo antitumor effect following a liver arterial bolus injection with a RRH-PI to MC 38 tumor bearing mice. LABI was conducted as previously described in order to monitor the antitumor effect of an RRH-PI prodrug. In the experiment, III (n=11) or hydrolyzed C12PMMA-PI (n=9) were injected as previously described, the mouse abdomen was closed after drug treatment and the animals were monitored for survival time. Statistical analysis was conducted using a t-test (two tailed distribution and two sample—unequal variance, Excel).

[2] = tested on: SK-OV-3 ovarian tumors; test: Intraperitoneal perfusion chemotherapy (IPPC) in SK-OV-3 mouse model; type: in vivo
Method: In a separate experiment, ovarian cancer development was monitored until signs of ascitis (4-5 wks). At this time, a test IPPC injection was conducted with C12PMMA-PI by adapting methodology typically used for peritoneal perfusion. Briefly, two 23 G Abbocath-T effluent catheters with multiple perforations were inserted into the peritoneal cavity and advanced to the region of the ovaries on both sides of the vertebra. The ascitic fluid was slowly aspirated with minimal negative pressure. Then an additional 23 G perforated catheter was inserted into abdomen and positioned on top of abdominal organs. 1 mL of drug/DMF/ITG solution was infused over 1 min, followed by repeated gentle massage. 5-7 min post administration, peritoneal fluid was again aspirated, and the peritoneal cavity was perfused with 10 mL of PBS via the top catheter, together with simultaneous aspiration via the lower two catheters. Special care was taken to avoid elevated abdominal pressure during the procedure. […] Confocal microscopy indicated a similar staining pattern as observed previously, with strong propidium iodide nuclear labeling of all of the outer cells exposed to peritoneal cavity, including ovarian tumors. […] All cells exposed to peritoneal cavity and thereby to the prodrug solution indicated prodrug uptake and staining, including: mesentery cells, outer layer of cells of abdominal organs, and disseminated peritoneal ovarian tumors. The tumor lesions still appeared to be more susceptible to drug uptake, indicating both greater tissue penetration and intense PI^+-staining as compared to normal abdominal tissue, with the exception of the mesentery which was also was heavily PI^+.

[3] = tested on: Hepa 1-6 cells; test: Calcein AM live cell marker after prodrug treatment; type: cell-based, mouse; conditions: following treatment with prodrug
Method: (§1) In Vitro cellular uptake of PI, RRH-PI compounds, and IV evaluated by fluorescence measurements. PI and the RRH-prodrugs were tested for cellular uptake on several cell lines which included B16 (murine melanoma), Hepa 1-6 (mouse hepatoma), SK-OV-3 (also SKOV-3, human ovarian carcinoma), OVCAR-3 (human ovarian carcinoma), Jurkat (human T-lymphocyte), 293 (human embryonic kidney), and MC38 (mouse colon carcinoma) cells. Adherent cells were plated at 2.5×10^5 cells/well on 6-well plates 24 h prior to testing. The growth media was removed from individual wells and the drug/prodrug was immediately added to the well with the mixing chamber. Final drug/prodrug concentrations were 0.150 μmol in 220 μl total volume (20 μl OS, 200 μl ITG). After 30 sec the drug solution was removed (aspirated) and 2 ml complete media was added to the cells. […] Fluorescent microscopy studies were conducted with a three laser LSM 510 confocal microscope, an Axiovert S100 fluorescent microscope, or an Axioplan2 fluorescent microscope (all Zeiss) equipped with filter sets for the rhodamine fluorescence channel (λex=BP 450/12, λem=LP 590 nm filter set) and the fluorescein fluorescent channel (λex=BP 546/90, λem=LP 515 nm filter set). […]

[4] = tested on: cells; test: SYTOX Green dead cell indicator after prodrug treatment; type: cell-based; conditions: following treatment with prodrug
Method: as §1

[5] = tested on: cells; test: Testing of mixing chamber: PI uptake in cells; type: cell-based; conditions: PI in DMF and isotonic glucose through mixing chamber
Description: Development of a Mixing Chamber. Due to the instability of the RRH-PI prodrugs in water, it was necessary to dissolve them in a small amount of pharmaceutically acceptable organic solvent (OS) and mix them with an aqueous solution immediately prior to delivery. Rapid and efficient mixing was critical for optimum delivery and minimalization of toxicity due to the organic solvent. A passive mixing chamber with colliding flows was utilized to mix the drug/RRH-prodrug (dissolved in a carrier solvent such as an organic solvent) with an aqueous solution immediately prior use. Two syringe pumps (Harvard Pumps, PHD 2000) were utilized to deliver the solutions to the mixing chamber. Typically mixtures were 1:10 by volume with 0.67 μl of PI or RRH-PI/OS solution (7.48 mM) diluted with 6.7 μl of isotonic glucose (ITG), buffer, or media per sec, for a total delivery volume of 220 μl (0.150 μmol of PI or RRH-PI) over 30 sec (final organic solvent concentration of 9.1% by vol.).
The mixing chamber (FIG. 3) was constructed from 18 G stainless steel tubing (38 mm in length) by drilling a 0.2 mm hole at a 45 degree angle in the tubing wall and then inserting 30 G stainless steel tubing. The 30 G stainless tubing was angled and advanced into the 18 G tubing so as to be centered within the larger tubing and then soldered in place. […]

SMILES: CCCCCCCCCCCCNC(=O)CCC(=CCC(=O)O)C(=O)Nc1ccc2c(c1)c(-c1ccccc1)[n+](CCC[N+](C)(CC)CC)c1cc(NC(=O)C(=CCC(=O)O)CCC(=O)NCCCCCCCCCCCC)ccc21.[I-].[I-] [III, 3,8-bis-[2-(2 carboxyethylidene)-4-(dodecarbamoyl)-1-oxo-butylamine] 5-(3,3-diethyl-3-methylammoniumpropyl) 6-phenyl phenanthridinium diiodide]
- survival [1]: increased survival
- labeling of microtumors (0.1-1 mm) [2]: heavily labeled throughout the tumor
- depth of labeling of large tumors (5-7 mm) ([2]; 4-5 wks after inoculation): about 500 microns
- survival of the perfusion procedure ([2]; sacrificed 3-5 h later): All animals survived the perfusion well

SMILES: CCCCCCCCCCCCCCCCCC[Si](C)(C)Nc1ccc2c(c1)c(-c1ccccc1)[n+](CCC[N+](C)(CC)CC)c1cc(N[Si](C)(C)CCCCCCCCCCCCCCCCCC)ccc21.[I-].[I-] [II, 3,8-bis[((dimethyl)octadecylsilazyl)amine] 5-(3,3-diethyl-3-methylammoniumpropyl) 6-phenyl phenanthridinium diiodide]
- cells both PI and calcein positive [3]: approximately 86%
- cells both PI-positive and SYTOX Green positive [4]: less than 5%

SMILES: CC[N+](C)(CC)CCC[n+]1c(-c2ccccc2)c2cc(N)ccc2c2ccc(N)cc21.[I-].[I-] [PI, Propidium iodide, reference compound]
- PI uptake in cells [5]: very little PI uptake in cells
